Laboratory results published in US11633335B2, “Skin cleansing composition” (KAO CORPORATION, priority 2017, dated 2023).

Columns and labels:
[1] = Keratotic plug detergency after washing with water: collapse state one minute after contact with water; parameters: species or system human; conditions: sample substituted with water; samples of Table 1
Source text: The penetration was relatively evaluated by criteria with 11 ratings starting from the rating 1 “the sample hardly penetrated into the keratotic plug” to the rating 11 “the sample penetrated to the center of the keratotic plug”. The collapsibility by the detergency against keratotic plug was relatively evaluated by criteria with 11 ratings starting from the rating 1 “almost no change is observed in the external appearance of the keratotic plug” to the rating 11 “peeling or separation is observed in the area from the surface layer to the central portion of the keratotic plug (the initial appearance of the keratotic plug is not retained)”. After one minute from the contact of the keratotic plugs with the sample, Kimwipes (registered trademark) was brought into contact with an edge of the cover glass to remove the sample under the cover glass. […] The results of the evaluation are shown in the column “Keratotic plug detergency (during washing with water)” in Table. The measurements were performed at 25° C.

[2] = Keratotic plug detergency (penetration): penetration of the sample into keratotic plugs one minute after contact, digital microscope; parameters: species or system human; conditions: contact with the sample for 1 minute; samples of Table 1
Procedure: Keratotic plugs in the nasal region were removed with “Biore Nose Pack (manufactured by Kao Corporation)”, the resulting keratotic plugs on the pack were gently taken out with tweezers. […] Consequently, the sample entered into the gap between the slide glass and the cover glass by capillary phenomenon and was brought into contact with the keratotic plugs. The contact of the keratotic plugs and the sample was recorded with a digital microscope (VHX-5000, manufactured by Keyence Corporation, magnification: 150×), and the penetration of the sample into the keratotic plugs and the collapse state of the keratotic plugs were evaluated after one minute from the contact of the keratotic plugs with the sample. The results of each evaluation are shown in the columns “Keratotic plug detergency (penetration)” and “Keratotic plug detergency (during cleansing)” in Tables. The measurements were performed at 25° C. The penetration was relatively evaluated by criteria with 11 ratings starting from the rating 1 “the sample hardly penetrated into the keratotic plug” to the rating 11 “the sample penetrated to the center of the keratotic plug”. The collapsibility by the detergency against keratotic plug was relatively evaluated by criteria with 11 ratings starting from the rating 1 “almost no change is observed in the external appearance of the keratotic plug” to the rating 11 “peeling or separation is observed in the area from the surface layer to the central portion of the keratotic plug (the initial appearance of the keratotic plug is not retained)”.

[3] = cited from earlier work
[4] = Keratotic plug detergency (during cleansing): collapse state of keratotic plugs one minute after contact with the sample; parameters: species or system human; conditions: contact with the sample for 1 minute; samples of Table 1
Procedure: Keratotic plugs in the nasal region were removed with “Biore Nose Pack (manufactured by Kao Corporation)”, the resulting keratotic plugs on the pack were gently taken out with tweezers.
The resulting keratotic plugs were placed on a slide glass and were covered with a cover glass, and 0.05 mL of a sample was dropwise added to an edge of the cover glass. Consequently, the sample entered into the gap between the slide glass and the cover glass by capillary phenomenon and was brought into contact with the keratotic plugs. The contact of the keratotic plugs and the sample was recorded with a digital microscope (VHX-5000, manufactured by Keyence Corporation, magnification: 150×), and the penetration of the sample into the keratotic plugs and the collapse state of the keratotic plugs were evaluated after one minute from the contact of the keratotic plugs with the sample. The results of each evaluation are shown in the columns “Keratotic plug detergency (penetration)” and “Keratotic plug detergency (during cleansing)” in Tables. The measurements were performed at 25° C.
The penetration was relatively evaluated by criteria with 11 ratings starting from the rating 1 “the sample hardly penetrated into the keratotic plug” to the rating 11 “the sample penetrated to the center of the keratotic plug”. The collapsibility by the detergency against keratotic plug was relatively evaluated by criteria with 11 ratings starting from the rating 1 “almost no change is observed in the external appearance of the keratotic plug” to the rating 11 “peeling or separation is observed in the area from the surface layer to the central portion of the keratotic plug (the initial appearance of the keratotic plug is not retained)”.

[5] = tested on: insoluble protein (seine protein); test: Evaluation of effect of suppressing protein aggregation (precipitation of insoluble protein); conditions: sample of Table 1
Procedure: Thirty milliliters of a sample and 0.06 g of an insoluble protein (seine protein) were placed in a 35-mL standard glass bottle, and the concentration of the insoluble protein was adjusted to 0.2 mass % (test sample). Separately, a standard sample was prepared by using water instead of the sample and adjusting the concentration of the insoluble protein to 0.2 mass %. Subsequently, the standard glass bottles were sufficiently shaken and stirred up and down (shake width: 15 cm, 20 times at a rate of 5 times for 3 seconds) in a thermostatic chamber of 25° C. and were left to stand for 3 minutes. The precipitation state of the insoluble protein was then visually verified, and the ratio of the amount of the precipitated standard sample to the amount of the precipitated test sample (the height of the precipitate in each standard glass bottle was measured as the precipitation amount), (precipitation amount of standard sample)/(precipitation amount of test sample), was calculated. A higher ratio indicates a higher effect of suppressing protein aggregation.

Compound | collapse of keratotic plugs during washing with water (in words) [1] | penetration of the sample into keratotic plugs (in words) [2] | solubility in water (in words) [3] | collapse of keratotic plugs in contact with the sample, assumption of cleansing (in words) [4] | action on proteins (in words) [5]
CC(C)(N)CO [AMP, 2-amino-2-methyl-1-propanol] | further accelerating the collapse of keratotic plugs | the sample penetrated into keratotic plugs | readily dissolved in water | – | –
NC(CO)(CO)CO [Tris, 2-amino-2-hydroxymethyl-1,3-propanediol] | – | – | readily dissolved in water | – | –
O=P([O-])([O-])O.[Na+].[Na+] [disodium hydrogen phosphate] | the collapse of keratotic plugs did not progress | the sample hardly penetrated into keratotic plugs | – | the collapse of the keratotic plugs did not progress | –
O=C([O-])O.[Na+] [sodium hydrogen carbonate] | the collapse of keratotic plugs did not progress | the sample hardly penetrated into keratotic plugs | – | the collapse of the keratotic plugs did not progress | –
O=P([O-])([O-])[O-].[Na+].[Na+].[Na+] [trisodium phosphate] | the collapse of keratotic plugs did not progress | the sample hardly penetrated into keratotic plugs | – | the collapse of the keratotic plugs did not progress | –
sodium polyoxyethylene (2) lauryl ether sulfate [POE (2) sodium lauryl sulfate] | – | hardly penetrated into the keratotic plugs | – | the collapse of the keratotic plugs did not progress | the action on proteins was strong to dissolve the proteins
